Experimental data from patent publication US11802120B2, “Fused cyclic urea derivatives as CRHR2 antagonist” (RaQualia Pharma Inc., priority 2018, dated 2023).

Molecular target: T1, human CRHR2-alpha (Homo sapiens, UniProt Q13324)
T1 sequence (Q13324 1-411): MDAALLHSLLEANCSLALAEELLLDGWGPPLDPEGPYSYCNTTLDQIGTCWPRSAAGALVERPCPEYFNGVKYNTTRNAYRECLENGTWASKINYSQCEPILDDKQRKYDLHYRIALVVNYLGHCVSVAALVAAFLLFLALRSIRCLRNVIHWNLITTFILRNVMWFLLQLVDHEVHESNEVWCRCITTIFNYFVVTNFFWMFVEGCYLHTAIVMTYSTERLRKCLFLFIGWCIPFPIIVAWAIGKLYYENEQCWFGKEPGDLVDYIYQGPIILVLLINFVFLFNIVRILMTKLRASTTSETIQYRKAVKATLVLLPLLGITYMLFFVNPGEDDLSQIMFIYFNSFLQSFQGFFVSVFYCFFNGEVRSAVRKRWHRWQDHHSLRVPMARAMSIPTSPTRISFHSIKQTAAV
Assay: cAMP functional assay for human CRHR2 (LANCE Ultra cAMP, TR-FRET)
Format: cell-based
Settings: CHO-K1 cells expressing human CRHR2-alpha, agonist human urocortin2 at EC80, cAMP; read-out: IC50 against CRHR2
Procedure, shortened: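 Antagonism measured in CHO-K1 cells stably expressing the receptor, serum-starved 7 h then cryopreserved. Thawed cells in HBSS buffer with 0.1% BSA, 0.5 mM IBMX, 5 mM Hepes pH 7.4 were preincubated with compound 30 min at 25° C, then stimulated 30 min with EC80 agonist: urocortin2 for CRHR2, CRF for CRHR1.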

IC50, < 300 nM:
Cc1ncc(Cl)cc1C(=O)N[C@H]1CC[C@H](Cn2c(=O)n(-c3ccc(-c4ccn(C)n4)cc3)c3ccccc32)CC1 [Example 447, 5-chloro-2-methyl-N-((1r,4r)-4-((3-(4-(1-methyl-1H-pyrazol-3-yl)phenyl)-2-oxo-2,3-dihydro-1H-benzo[d]imidazol-1-yl)methyl)cyclo-hexyl)nicotinamide]
Cc1ncc(Cl)cc1C(=O)N[C@H]1CC[C@H](Cn2c(=O)n(-c3cncc(N4CCCC4)c3)c3ccccc32)CC1 [Example 482, 5-chloro-2-methyl-N-((1r,4r)-4-((2-oxo-3-(5-(pyrrolidin-1-yl)pyridin-3-yl)-2,3-dihydro-1H-benzo[d]imidazol-1-yl)methyl)cyclohexyl)nicotinamide]
O=C(N[C@H]1CC[C@H](Cn2c(=O)n(-c3ccc(N4CCOCC4=O)nc3)c3ccccc32)CC1)c1cc(Cl)cnc1C(F)F [Example 505, 5-chloro-2-(difluoromethyl)-N-((1r,4r)-4-((2-oxo-3-(6-(3-oxomorpholino)pyridin-3-yl)-2,3-dihydro-1H-benzo[d]imidazol-1-yl)methyl)cyclo-hexyl)nicotinamide]
CCC(=O)Nc1ccc(-n2c(=O)n(C[C@H]3CC[C@H](NC(=O)c4cc(Cl)cnc4C)CC3)c3ccccc32)cn1 [Example 479, 5-chloro-2-methyl-N-((1r,4r)-4-((2-oxo-3-(6-propionamidopyridin-3-yl)-2,3-dihydro-1H-benzo[d]imidazol-1-yl)methyl)cyclohexyl)nicotinamide]
CCNC(=O)c1ccc(-n2c(=O)n(C[C@H]3CC[C@H](NC(=O)c4cc(Cl)cnc4C(F)F)CC3)c3ccccc32)cn1 [Example 551, 5-(3-(((1r,4r)-4-(5-chloro-2-(difluoromethyl)nicotina-mido)cyclohexyl)methyl)-2-oxo-2,3-dihydro-1H-benzo [d]imidazol-1-yl)-N-ethylpicolinamide]
Cc1ncc(Cl)cc1C(=O)N[C@H]1CC[C@H](Cn2c(=O)n(-c3ccc4ncnn4c3)c3ccccc32)CC1 [Example 278, N-((1r,4r)-4-((3-([1,2,4]triazolo [1,5-a]pyridin-6-yl)-2-oxo-2,3-dihydro-1H-benzo[d]imidazol-1-yl)methyl)cyclohexyl)-5-chloro-2-methylnicotinamide]
Cc1ncc(Cl)cc1C(=O)N[C@H]1CC[C@H](Cn2c(=O)n(-c3cnc4c(c3)OCC(=O)N4C)c3ccccc32)CC1 [Example 196, 5-chloro-2-methyl-N-((1r,4r)-4-((3-(4-methyl-3-oxo-3,4-dihydro-2H-pyrido[3,2-b][1,4]oxazin-7-yl)-2-oxo-2,3-dihydro-1H-benzo[d]imidazol-1-yl)methyl)cyclohexyl) nicotinamide]
Cc1ncc(Cl)cc1C(=O)N[C@H]1CC[C@H](Cn2c(=O)n(-c3ccc(-c4cnn(C)c4)cc3)c3ccccc32)CC1 [Example 579, 5-chloro-2-methyl-N-((1r,4r)-4-((3-(4-(1-methyl-1H-pyrazol-4-yl)phenyl)-2-oxo-2,3-dihydro-1H-benzo[d]imidazol-1-yl)methyl)cyclo-hexyl)nicotinamide]
O=C(N[C@H]1CC[C@H](Cn2c(=O)n(Cc3cscn3)c3ccccc32)CC1)c1cc(Cl)cnc1C(F)(F)F [Example 314, 5-chloro-N-((1r,4r)-4-((2-oxo-3-(thiazol-4-ylmethyl)-2,3-dihydro-1H-benzo[d]imidazol-1-yl)methyl)cyclo-hexyl)-2-(trifluoromethyl) nicotinamide]
O=C(N[C@H]1CC[C@H](Cn2c(=O)n(-c3ccc(N4CCNC4=O)cn3)c3ccccc32)CC1)c1cc(Cl)cnc1C(F)F [Example 717, 5-chloro-2-(difluoromethyl)-N-((1r,4r)-4-((2-oxo-3-(5-(2-oxoimidazolidin-1-yl)pyridin-2-yl)-2,3-dihydro-1H-benzo [d]imidazol-1-yl)methyl)cyclo-hexyl)nicotinamide]
Cc1ncc(Cl)cc1C(=O)N[C@H]1CC[C@H](Cn2c(=O)n(-c3ccc4nnn(C)c4c3)c3ccccc32)CC1 [Example 232, 5-chloro-2-methyl-N-((1r,4r)-4-((3-(1-methyl-1H-benzo[d] [1,2,3]triazol-6-yl)-2-oxo-2,3-dihydro-1H-benzo[d]imidazol-1-yl)methyl)cyclohexyl) nicotinamide]
Cn1ncc2cc(-n3c(=O)n(C[C@H]4CC[C@H](NC(=O)c5cc(Cl)cnc5C(F)F)CC4)c4cccnc43)ccc21 [Example 547, 5-chloro-2-(difluoromethyl)-N-((1r,4r)-4-((3-(1-methyl-1H-indazol-5-yl)-2-oxo-2,3-dihydro-1H-imidazo[4,5-b]pyridin-1-yl)methyl)cyclo-hexyl)nicotinamide]
Cn1cnc2cc(-n3c(=O)n(C[C@H]4CC[C@H](NC(=O)c5cc(Cl)cnc5C(F)F)CC4)c4ccccc43)ccc21 [Example 386, 5-chloro-2-(difluoromethyl)-N-((1r,4r)-4-((1′-methyl-2-oxo-1′H-[1,5′-bibenzo[d]imidazol]-3(2H)-yl)methyl)cyclohexyl)nicotinamide]
Cn1ccc(-c2cncc(-n3c(=O)n(C[C@H]4CC[C@H](NC(=O)c5cc(Cl)cnc5C(F)F)CC4)c4ccccc43)c2)n1 [Example 701, 5-chloro-2-(difluoromethyl)-N-((1r,4r)-4-((3-(5-(1-methyl-1H-pyrazol-3-yl)pyridin-3-yl)-2-oxo-2,3-dihydro-1H-benzo [d]imidazol-1-yl)methyl)cyclo-hexyl)nicotinamide]
Cc1ccc(-n2c(=O)n(C[C@H]3CC[C@H](NC(=O)c4cc(Cl)cnc4C(F)F)CC3)c3cccnc32)c(Cl)c1 [Example 452, 5-chloro-N-((1r,4r)-4-((3-(2-chloro-4-methylphenyl)-2-oxo-2,3-dihydro-1H-imidazo[4,5-b]pyridin-1-yl)methyl)cyclo-hexyl)-2-(difluoromethyl) nicotinamide]
Cc1ncc(Cl)cc1C(=O)N[C@H]1CC[C@H](Cn2c(=O)n(-c3ccc4c(C(N)=O)noc4c3)c3ccccc32)CC1 [Example 243, 6-(3-(((1r,4r)-4-(5-chloro-2-methylnicotinamido)cyclohexyl)methyl)-2-oxo-2,3-dihydro-1H-benzo[d]imidazol-1-yl)benzo[d]isoxazole-3-carboxamide]
Cc1ncc(Cl)cc1C(=O)N[C@H]1CC[C@H](Cn2c(=O)n(-c3cnc4c(N)ncnc4c3)c3ccccc32)CC1 [Example 319, N-((1r,4r)-4-((3-(4-aminopyrido[3,2-d]pyrimidin-7-yl)-2-oxo-2,3-dihydro-1H-benzo[d]imidazol-1-yl)methyl)cyclohexyl)-5-chloro-2-methylnicotinamide]
CNC(=O)c1ccc(-n2c(=O)n(C[C@H]3CC[C@H](NC(=O)c4cc(Cl)cnc4C(F)F)CC3)c3c(F)cccc32)cn1 [Example 548, 5-(3-(((1r,4r)-4-(5-chloro-2-(difluoromethyl)nicotina-mido)cyclohexyl)methyt)-4-fluoro-2-oxo-2,3-dihydro-1H-benzo[d]imidazol-1-yl)-N-methylpicolinamide]
CNc1cc(C)c(-n2c(=O)n(C[C@H]3CC[C@H](NC(=O)c4cc(Cl)cnc4C)CC3)c3ccccc32)cn1 [Example 435, 5-chloro-2-methyl-N-((1r,4r)-4-((3-(4-methyl-6-(methylamino)pyridin-3-yl)-2-oxo-2,3-dihydro-1H-benzo[d]imidazol-1-yl)methyl)cyclohexyl)nicotinamide]
Cc1ncc(Cl)cc1C(=O)N[C@H]1CC[C@H](Cn2c(=O)n(-c3ccc(N4CCC(O)CC4)nc3)c3ccccc32)CC1 [Example 96, 5-chloro-N-((1r,4r)-4-((3-(6-(4-hydroxypiperidin-1-yl)pyridin-3-yl)-2-oxo-2,3-dihydro-1H-benzo[d]imidazol-1-yl)methyl)cyclohexyl)-2-methylnicotinamide]
Cc1ncc(Cl)cc1C(=O)N[C@H]1CC[C@H](Cn2c(=O)n(-c3ccc(-c4ccnn4C)cc3)c3ccccc32)CC1 [Example 446, 5-chloro-2-methyl-N-((1r,4r)-4-((3-(4-(1-methyl-1H-pyrazol-5-yl)phenyl)-2-oxo-2,3-dihydro-1H-benzo[d]imidazol-1-yl)methyl)cyclo-hexyl)nicotinamide]
COc1ccc(Cl)c(-n2c(=O)n(C[C@H]3CC[C@H](NC(=O)c4cc(Cl)cnc4C(F)F)CC3)c3ccncc32)c1 [Example 693, 5-chloro-N-((1r,4r)-4-((3-(2-chloro-5-methoxyphenyl)-2-oxo-2,3-dihydro-1H-imidazo [4,5-c]pyridin-1-yl)methyl)cyclohexyl)-2-(difluoromethyl) nicotinamide]
O=C(N[C@H]1CC[C@H](Cn2c(=O)n(Cc3cccnc3)c3ccccc32)CC1)c1cc(Cl)cnc1C(F)(F)F [Example 284, 5-chloro-N-((1r,4r)-4-((2-oxo-3-(pyridin-3-ylmethyl)-2,3-dihydro-1H-benzo[d]imidazol-1-yl)methyl)cyclohexyl)-2-(trifluoromethyl)nicotinamide]
